Source: paper PMC7367873, “Dissecting the sequence determinants for dephosphorylation by the catalytic subunits of phosphatases PP1 and PP2A” (Nature Communications, 2020)

System: GAB2-pS210
Experiment: In vitro dephosphorylation of GAB2-pS210 (Western blot)
Format: biochemical, human
Conditions: GAB2-pS210 relative to GAB2, Calyculin A 20 nM 12 min in HeLa Kyoto cells, recombinant PP1c 1 µM, 1 h at 30 °C in lysate
Experimental: pEGFP(C1)-14-3-3β or pCMV-GAB2-3FLAG was transfected into HeLa Kyoto cells as described in the respective section for 24 h. Cells were incubated with or w/o 20 nM Calyculin A (# 9902 S, Cell Signaling Technology) in complete growth media for 12 min. Cells were washed twice on ice with cold PBS and after addition of 500 µL lysis buffer (100 mM NaCl, 10 mM Tris, 0.1% IGEPAL, 1 mM EDTA, 1 mM EGTA, 20 nM Calyculin A, 1x cOmplete Mini protease inhibitor cocktail (Sigma), 2 mM DTT, 2 mM MnCl2) cells were scraped from plates, lysed by 10 pushes through an injection needle and the insoluble fraction was pelleted by centrifugation (10 min, 10^4 rcf, 4 °C). […] Beads were then washed three times with lysis buffer and samples were eluted in 1x SDS sample buffer by heating to 95 °C for 10 min and further analyzed by SDS PAGE for 14-3-3/GAB2 association and phosphorylation status of GAB2-pS210.
For SDS-PAGE, samples were loaded on NuPAGE™ 4-12% Bis-Tris protein gels (Invitrogen) and gel electrophoresis was performed at 180 V constant in 1x MOPS buffer. […] All blots were quantified using raw images and ImageLab software (v6.0.1, BioRad): Files were imported and analyzed without further modifications. […] The quantification was exported from the analysis table and measurements of background adjusted band volumes where used for further normalization steps and graphical depiction. […]

PP1c: recombinant catalytic subunit of PP1
p-level of GAB2 pS210: decrease in the p-level
